Columns and labels:
CysLT1R wild type = CysLT1R wild type (Homo sapiens, UniProt Q9Y271); test: cell-based; details: HEK293, read-out: % IP1 production (normalized), single replicate values, log[Pranlukast] -11 M; CysLT1-wt
CysLT1R [1] = details: Supplementary Table 3 ref ref.2; cited from earlier work
CysLT2R [2] = details: Supplementary Table 3 ref ref.2; cited from earlier work
CysLT1R [3] = test: IC50 toward CysLT1R of the benzoxazine SAR series, quoted from the literature; details: CysLT1R over CysLT2R; SAR series of ref [30]
CysLT2R [4] = test: IC50 toward CysLT2R of the benzoxazine SAR series, quoted from the literature; details: CysLT2R over CysLT1R; SAR series of ref [30]

Chain of CysLT1R wild type (Q9Y271 whole entry): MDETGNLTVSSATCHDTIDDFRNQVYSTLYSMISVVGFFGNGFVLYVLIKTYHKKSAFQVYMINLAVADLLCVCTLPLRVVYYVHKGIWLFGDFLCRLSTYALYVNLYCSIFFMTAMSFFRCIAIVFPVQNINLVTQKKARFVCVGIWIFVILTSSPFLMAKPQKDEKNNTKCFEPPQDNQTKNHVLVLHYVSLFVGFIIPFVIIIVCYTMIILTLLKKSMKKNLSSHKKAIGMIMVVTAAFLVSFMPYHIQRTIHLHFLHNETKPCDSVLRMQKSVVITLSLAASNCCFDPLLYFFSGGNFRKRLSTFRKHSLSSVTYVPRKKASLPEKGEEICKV

SMILES	remaining activity at 10 pM (CysLT1R wild type) [%]	IC50 (CysLT1R [1]) [nM]	IC50 (CysLT2R [2]) [nM]	selectivity for CysLT1R (CysLT1R [3])	selectivity for CysLT2R (CysLT2R [4]) [fold]
O=C(Nc1cccc2c(=O)cc(-c3nnn[nH]3)oc12)c1ccc(OCCCCc2ccccc2)cc1 [pranlukast]	94.3	–	–	–	–
O=C(O)CCC(=O)N1C[C@@H](C(=O)O)Oc2c(NC(=O)c3ccc(OCCCCc4ccccc4)cc3)cccc21 [cpd 13e]	–	< 1	1800	1,800 fold	–
O=C(O)CCCN1C[C@@H](C(=O)O)Oc2c(NC(=O)c3ccc(OCCCCCc4ccccc4)cc3)cccc21 [cpd 15b]	–	120	0.62	–	200

Source: paper PMC6897958, “Structural basis of ligand selectivity and disease mutations in cysteinyl leukotriene receptors” (Nature Communications, 2019)
